Measured values reported in US20030143608A1, “Drug response marker in beta-1 adrenergic receptor gene” (Myriad Genetics, Incorporated, priority 2001, published 2003).

Test system: patients with symptoms diagnosed as hypertension
Experiment: Antihypertensive drug response by beta-1 adrenergic receptor A145G genotype in hypertensive patients
Format: in vivo, human
Details: for Average Change in Blood Pressure: Sardinian hypertensive patients, atenolol 100 mg b.i.d., HCTZ 25 mg u.i.d. or fosinopril 20 mg u.i.d. for 2 months, change from baseline
Experimental: For our study, three drugs—fosinopril, atenolol, and hydrochlorothiazide—were administered to patients with symptoms diagnosed as hypertension (a diastolic blood pressure above 89 mmHg and a systolic blood pressure above 139 mmHg). Since essential hypertension is a complex multifactorial disease with an environmental component and a genetic interaction basis, we selected a […] patient sample from Sardinia, which ensured genetic homogeneity. Piazza, Science 260:1767-9 (1993). Patients were unrelated Sardinian from at least 2 generations. Approximately 75% of the patients were previously untreated for hypertension, whereas the remaining were absent from antihypertensive treatment for at least 6 months prior to testing, thus ensuring that modifications in blood pressure during the study were mostly due to the drug under study and not the spurious effects related to previous treatments.
After a 2-month pre-treatment period, during which blood pressure was measured periodically, patients with blood pressure (as average of 3 measurements performed in standard conditions) still over 140/90 (n=494) where randomly assigned to one of the following drugs: atenolol 100 mg b.i.d., hydrochlorothiazide (HCTZ) 25 mg u.i.d. or fosinopril 20 mg u.i.d. for 2 months. After a treatment was begun, patient blood pressure, heart rate and body weight were assessed every 2 weeks, and values at +4 and +8 weeks tabulated and considered for analysis.
Genomic DNA was extracted from the leukocytes of each individual using a genomic DNA extraction kit based on […]. Genomic DNA of the beta-1 adrenergic receptor gene was then amplified using standard PCR procedures. The PCR product was diluted 1:10 in EDTA 1 mM and then submitted for automated sequencing carried out with an Applied Biosystems Sequencer using dye primer chemistry.
To evaluate the association between each patient's genotype and the response of the individual to the respective drug, the change in blood pressure was analyzed from the baseline to the follow-up measurements at 4 and 8 weeks. A linear regression model was then used to adjust for the effect of baseline blood pressure levels and sex of the individual. The difference in average change of blood pressure between genotypes for each time interval was determined through analysis of covariance.

[1] = genotype AA (homozygous wild-type)
[2] = genotype GG (homozygous A145G variant)

Row | SMILES | Average Change in Blood Pressure [1] [mmHg] | Average Change in Blood Pressure (genotype AG (heterozygous)) [mmHg] | Average Change in Blood Pressure [2] [mmHg] | relative blood pressure response between drugs (individuals homozygous for A145G (GG), analysis of covariance, adjusted for baseline blood pressure and sex)
1 | CC(C)NCC(O)COc1ccc(CC(N)=O)cc1 (stereo not shown) [Atenolol, atenolol] | −17.3 | −17.9 | −10.6 | –
2 | CCC(=O)O[C@@H](O[P@](=O)(CCCCc1ccccc1)CC(=O)N1C[C@H](C2CCCCC2)C[C@H]1C(=O)O)C(C)C [Fosinopril, fosinopril] | −12.3 | −8.6 | −23.0 | –
3 | NS(=O)(=O)c1cc2c(cc1Cl)NCNS2(=O)=O [Hydrochlorothiazide, hydrochlorothiazide] | −10.2 | −12.9 | −30.5 | more likely (p=0.0055) to experience a significant decrease in blood pressure
